Assay results published in paper PMC3985586, “Cratoxylum formosum (Jack) Dyer ssp. pruniflorum (Kurz) Gogel. (Hóng yá mù) extract induces apoptosis in human hepatocellular carcinoma HepG2 cells through caspase-dependent pathways” (Chinese Medicine, 2014).
In brackets after ≈: the same amount, converted by molar mass.

Experiments:
HepG2 cells [1] = assay: Mitochondrial membrane potential (DiOC6, flow cytometry); format: cell-based, human; details: HepG2, 35% (v/v) H2O2 positive control, 12 and 24 h, P < 0.001
Protocol: Cells (1 × 10^6 cells/mL) were seeded into a 24-well plate, incubated at 37°C for 24 h, and then treated with 0, 30, 60, or 120 μg/mL of CF extract for 12 or 24 h. Concentrated hydrogen peroxide (35%, v/v) was used as a positive control. Next, the cells were washed, harvested by trypsinization, transferred to a microcentrifuge tube, and stained with a lipophilic fluorogenic dye, DiOC6, at 40 nM for 30 min in the dark at 37°C. After the incubation, the cells were immediately analyzed by flow cytometry (BD FACSCanto II, San Jose, CA, USA) for incorporation of the fluorochrome.

HepG2 cells [2] = assay: Neutral red cytotoxicity assay, HepG2; format: cell-based, human
Protocol: (§1) Cell viability was measured by an NR colorimetric assay. Human HepG2 cells and normal African green monkey kidney Vero cells were used as cell models to determine the percent cytotoxicity. Briefly, cells (4 × 10^6 cells/mL) were treated with CF extract at various concentrations (10, 25, 50, 100, 250, and 500 μg/mL) and the standard anticancer drug melphalan as a positive control, while the untreated groups were exposed to fresh medium at equal volumes to those used for the treated groups. After 24 h of exposure, the cells were incubated for 2 h with NR dye (50 μg/mL) dissolved in DMEM, and then washed with phosphate-buffered saline (PBS; pH 7.4). Finally, the cells were lysed with 0.33% HCl/isopropanol. A microplate reader (Tecan, France) was used to measure the absorbances of NR dye in the viable cells at 520 and 650 (reference) nm. The percentage of cell cytotoxicity of the CF extract was calculated as described by Machana et al.[18] and compared with that of melphalan. The selectivity index (SI) was calculated to determine the selective cancer cell line cytotoxicity. The SI of the test compound was compared with the IC50 for the Vero cells divided by the IC50 for the HepG2 cells.

Vero cells = assay: Neutral red cytotoxicity assay, Vero; format: cell-based, African green monkey; details: Chlorocebus sabaeus, 24 h, read-out: IC50 ± SD Vero
Protocol: as §1

HepG2 cells [3] = assay: DAPI staining apoptosis induction assay; format: cell-based, human; details: HepG2, 24 h, CF 120 μg/mL, melphalan 80 μg/mL (2 × IC50)
Protocol: Cells (1 × 10^6 cells/well) were treated with CF extract and the melphalan for 24 h at 2 × IC50, and the morphological changes of the induced apoptotic cells were determined by DAPI staining. The concentrations of CF extract and melphalan used in the following apoptosis experiments were 120 and 80 μg/mL, respectively. The cells were fixed in pure methanol at 4°C for 10 min, and then stained with DAPI (1 μg/mL) at room temperature in the dark. The excess dye was removed and glycerin was added to the cells with PBS at a 1:1 ratio and mixed well. Next, the cells were fixed on a slide and the apoptotic bodies observed at 40× objective magnification under an inverted fluorescence microscope (Eclipse TS100; Nikon, UK). The percentage of apoptotic cells was calculated as described by Machana et al.[18]. The average% apoptotic cells were calculated from three independent wells with 10 eye views in each well.

Compound	Alteration of MMP compared to untreated cells (HepG2 cells [1])	IC50 (HepG2 cells [2]; Homo sapiens, HepG2, 24 h, read-out: IC50 ± SD HepG2) [µg/mL]	Selectivity index (SI) (HepG2 cells [2]; IC50 for Vero cells divided by IC50 for HepG2 cells, SI > 3 indicates high selectivity)	IC50 (Vero cells) [µg/mL]	Percentage of apoptotic cells (HepG2 cells [3]) [%]
OO [H2O2, hydrogen peroxide]	significantly different				
N[C@@H](Cc1ccc(N(CCCl)CCCl)cc1)C(=O)O [Melphalan, melphalan]		37.7 ± 9.8 (≈ 124 µM)	1.6	59.9 ± 3.2 (≈ 196 µM)	41.6 ± 2.1
